Counter-ions that a name gives are not always drawn.

A short description of assay [1]: Chronic corticosterone (CORT) model: body weight. As to conditions: male C57BL/6NTac; Flx 18 mg/kg/day in drinking water or RS-67,333 1.5 mg/kg/day in osmotic minipumps for 3 weeks prior to CORT. It is filed as in vivo, mice. Here is the method:
This chronic CORT elevation dysregulates the hypothalamic-pituitary-adrenal axis (HPA) in a manner similar to that observed in clinical depression. The dose and duration of CORT treatment was selected based on previous studies. CORT (35 μg/ml, equivalent to about 5 mg/kg/day) dissolved in 0.45% hydroxypropyl-o-cyclodextrin (0-CD) or vehicle (VEH) (0.45% j-CD) was available ad libitum in the drinking water in opaque bottles to protect it from light. VEH- and CORT-treated water was changed every 3 days to prevent possible degradation. Contextual Fear Conditioning (CFC): A 3-shock CFC procedure was administered as previously published. Briefly, mice were placed into context A and administered 3 2-s shocks (0.75 mA) at 180 s, 240 s or 300 s following placement into context A. Mice were removed from the context 15 s following the termination of shock (at 317 s). For context retrieval, mice were placed back into context A for 300 s. Electrophysiology: Electrophysiology was conducted as previously described. Statistical Analysis: Results from data analyses are expressed as means±SEM. Alpha was set to 0.05 for all analyses. Data were analyzed using GraphPad Prism v7.0 or v8.0. For all experiments, unless otherwise noted, one- or two-way ANOVAs with repeated-measures were applied to the data as appropriate. […] Videos were scored using ANY-maze behavior tracking software (Stoelting, Wood Dale, Ill.). […]

Assay [2] deals with C57BL/6NTac mice. Kind of assay: Elevated plus maze (EPM) in CORT model. The class given is in vivo. As to conditions: male C57BL/6NTac, Flx 18 mg/kg/day or RS-67,333 1.5 mg/kg/day for 3 weeks prior to CORT. Here is the method:
This chronic CORT elevation dysregulates the hypothalamic-pituitary-adrenal axis (HPA) in a manner similar to that observed in clinical depression. The dose and duration of CORT treatment was selected based on previous studies. CORT (35 μg/ml, equivalent to about 5 mg/kg/day) dissolved in 0.45% hydroxypropyl-o-cyclodextrin (0-CD) or vehicle (VEH) (0.45% j-CD) was available ad libitum in the drinking water in opaque bottles to protect it from light. VEH- and CORT-treated water was changed every 3 days to prevent possible degradation. Contextual Fear Conditioning (CFC): A 3-shock CFC procedure was administered as previously published. Briefly, mice were placed into context A and administered 3 2-s shocks (0.75 mA) at 180 s, 240 s or 300 s following placement into context A. Mice were removed from the context 15 s following the termination of shock (at 317 s). For context retrieval, mice were placed back into context A for 300 s. Electrophysiology: Electrophysiology was conducted as previously described. Statistical Analysis: Results from data analyses are expressed as means±SEM. Alpha was set to 0.05 for all analyses. Data were analyzed using GraphPad Prism v7.0 or v8.0. For all experiments, unless otherwise noted, one- or two-way ANOVAs with repeated-measures were applied to the data as appropriate. Significant main effects and/or interactions were followed by Fisher's PLSD post hoc analysis or unpaired t-tests. Drugs: All drugs were prepared in physiological saline and all injections were administered intraperitoneally (i.p.) in volumes of 0.1 cc per […] body weight unless otherwise noted. Fluoxetine hydrochloride (Flx): Flx (BioTrend Chemicals AG, BG197, Zurich, Germany) was administered in the drinking water (18 mg/kg/day) for 3 weeks before the start of CORT. […] (R,S)-ketamine (K): (R,S)-ketamine (Ketaset III, Ketamine HCl injection, Fort Dodge Animal Health, Fort Dodge, Iowa) was administered in a single dose at 30 mg/kg of body weight 1 week before the start of CFC. […] PF-04995274: PF-04995274 (Sigma, Catalog No. 1331782-27-4, St. Louis, Mo.) was administered a single dose at 3 or 10 mg/kg of body weight 1 week before the start of CFC. PF-04995274 was dissolved in saline using an ultrasonic homogenizer (BioLogics, Model 3000, Manassas, Va.). Osmotic minipump implantation: ALZET osmotic minipumps (Model 2004, […], 28 days) were implanted subcutaneously under isoflurane anesthesia as previously described [S2]. Osmotic minipumps were rotated under the skin two to three times per week. Behavioral Assays: All experiments were approved by the Institutional Animal Care and Use Committee (IACUC) at the New York Psychiatric Institute (NYSPI). […] Videos were scored using ANY-maze behavior tracking software (Stoelting, Wood Dale, Ill.). […]

The test system of assay [3] is BALB/cJRj mice. Put plainly: Elevated plus maze (EPM), acute anxiolytic-like effect. The class given is in vivo. The settings on record: acute systemic administration; fluoxetine 18 mg/kg i.p. Here is the method: (§1) RS67333 (1.5 mg/kg, i.p.), diazepam (1.5 mg/kg, i.p.), fluoxetine (18 mg/kg, i.p.) were injected 45 min before testing in the Elevated Plus Maze (EPM), the Novelty Suppressed Feeding (NSF) or the Open Field (OF) in three independent cohorts of male BALB/cJRj mice.
(§2) To ensure the selectivity of the anxiolytic-like effects of RS67333, in a new cohort of male BALB/cJRj mice, GR125487 (1.0 mg/kg, i.p.) dissolved in 0.9% NaCl solution, was injected 15 minutes before RS67333 administration (1.5 mg/kg, i.p.). EPM or NSF occurred 45 min after RS67333 administration (A-S1). Behavioral consequences of the co-administration of GR125487+RS67333 were compared to RS67333 alone, diazepam (1.5 mg/kg, i.p.) fluoxetine (18 mg/kg, i.p.) and vehicle groups (0.9% saline solution, i.p.).
(§3) For mPFC drug infusion, two bilateral cannulae (75 μm-diameter silica capillary tubing inserted in 27G stainless steel catheter) were implanted in the mPFC [stereotaxic coordinates in mm from bregma: A=+2.10, L=±0.50, V=−2.60, A, anterior; L, lateral; and V, ventral, according to (A-S10)] under anesthesia (chloral hydrate, 400 mg/kg, i.p.). […] Diazepam (1.5 mg/kg) was used as a positive control.
In a new cohort of male BALB/cJRj mice, p-CPA was administered twice daily (at 0900 and 1700 h) for 3 consecutive days. RS67333 ([…]) and diazepam ([…]) were then intra-mPFC administered 24 h after the final p-CPA administration and behavioral test (EPM) occurred 45 minutes after local infusion.
The EPM is a widely used behavioral assay for rodents and it has been validated to assess the anti-anxiety effects of pharmacological agents (A-S11). This test was performed as described by (A-S1). The maze is a plus-cross-shaped apparatus, with two open arms and two arms closed by walls linked by a central platform 50 cm above the floor. Mice were individually put in the center of the maze facing an open arm and were allowed to explore the maze during 5 min for the behavioral consequences of an acute systemic administration or mPFC infusion and during 6 min for the optogenetic experiments. The time spent in and the numbers of entries into the open arms were used as an anxiety index. All parameters were measured using a videotracker (EPM3C, Bioseb, Vitrolles, France).

Assay [4] relates to BALB/cJRj mice. Kind of assay: Novelty suppressed feeding (NSF), acute anxiolytic-like effect. The class given is in vivo. The settings on record: male BALB/cJRj; i.p. 45 min before testing; RS67333 1.5, diazepam 1.5, fluoxetine 18 mg/kg. As for the experimental part: as §1, §2, §3
The NSF is a conflict test that elicits competing motivations: the drive to eat and the fear of venturing into the center of a brightly lit arena. The latency to begin eating is used as an index of anxiety/depression-like behavior, because classical anxiolytic drugs as well as chronic antidepressants decrease this measure. The NSF test was carried out during a 10 min period as previously described (A-S12). Briefly, the testing apparatus consisted of a plastic box (50×50×20 cm), the floor of which was covered with approximately 2 cm of wooden bedding. Twenty-four hours prior to behavioral testing, all food was removed from the home cage. At the time of testing, a single pellet of food (regular chow) was placed on a white paper platform positioned in the center of the box. Each animal was placed in a corner of the box, and a stopwatch was immediately started. The latency to eat (defined as the mouse sitting on its haunches and biting the pellet with the use of forepaws) was timed. Immediately afterwards, the animal was transferred to its home cage, and the amount of food consumed by the mouse in the subsequent 5 min was measured, serving as a control for change in appetite as a possible confounding factor.

As for `CNCCC(Oc1ccc(C(F)(F)F)cc1)c1ccccc1` (centres unmarked) [fluoxetine, Fluoxetine hydrochloride], in assay [1], the “CORT-induced increase in body weight” value is “attenuated”. Besides, in assay [2], the “time spent in the open arms of the EPM vs VEH+Veh” value is “did not alter”. In addition, in assay [2] (listed as Flx, hydrochloride), the “entries into the open arms of the EPM vs CORT+Veh” value is given as “significantly more entries”. Moreover, the anxiety-like behavior result in assay [3] is “did not affect anxiety-like behavior”. For the same molecule, in assay [4], the “latency to feed (NSF) vs vehicle” value was “anxiogenic-like effect”.

For the origin of these results see patent US20220031684A1, “PROPHYLACTIC EFFICACY OF SEROTONIN 4 RECEPTOR AGONISTS AGAINST STRESS” (THE TRUSTEES OF COLUMBIA UNIVERSITY IN THE CITY OF NEW YORK, priority 2019, published 2022).
